Reference: patent US10766869B2, “Triazoles for the treatment of demyelinating dieases” (Vertex Pharmaceuticals Incorporated, priority 2015, dated 2020)
Read-outs that look alike come from different tables or passages of the source.

Test system: primary rat mixed cortical cells
Assay: In vitro myelination assay (MBP positive myelin strands, fold myelin pixels above background)
Type: cell-based
Settings: Rattus norvegicus; for fold induction at 1 µM: 1.0 μM compound; for fold induction at 10 µM: 10.0 μM compound
How it was run: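 Read-out is total MBP-positive myelin strand pixels per well, detected by custom ridge-tracing software and reported as fold over untreated baseline. Primary P1 rat mixed cortical cells received compound (1.0 or 10.0 μM) for 14 days, with medium half-replaced on days 6 and 10. Standard deviation was taken across all replicates.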

[1] = relative to baseline of no added compound, read-out: Fold myelin pixels above background
[2] = relative to baseline of no added compound, read-out: Fold myelin pixels above background, 1.0 μM
[3] = relative to baseline of no added compound, read-out: Fold myelin pixels above background, 10.0 μM
[4] = read-out: Fold myelin pixels above background relative to baseline of no added compound

## Fc1cc(-n2cnc(Nc3cc(C(F)F)cc(N4CCN(C5COC5)CC4)n3)n2)ccc1Cl [Compound 621, N-[1-(4-chloro-3-fluoro-phenyl)-1,2,4-triazol-3-yl]-4-(difluoromethyl)-6-[4-(oxetan-3-yl)piperazin-1-yl]pyridin-2-amine]
[1]
  fold induction at 1 µM: 10 to 100
  fold induction at 10 µM: 1 to 10

## Fc1cc(F)cc(-n2cnc(Nc3cc(N4CCN(C5COC5)CC4)cc(C(F)(F)F)c3)n2)c1 [Compound 130, 1-(3,5-difluorophenyl)-N-[3-[4-(oxetan-3-yl)piperazin-1-yl]-5-(trifluoromethyl)phenyl]-1,2,4-triazol-3-amine]
[2]
  fold induction at 1 µM: 1000 to 10000
[3]
  fold induction at 10 µM: 100 to 1000

## Cc1cc(NCCN2CC[S+]([O-])CC2)cc(Nc2ncn(-c3cc(F)cc(F)c3)n2)c1 [Compound 940, N1-[1-(3,5-difluorophenyl)-1,2,4-triazol-3-yl]-5-methyl-N3-[2-(1-oxo-1,4-thiazinan-4-yl)ethyl]benzene-1,3-diamine]
[4]
  fold induction at 1 µM: 10 to 100
  fold induction at 10 µM: 1 to 10

## Cc1cc(Nc2ncn(-c3cc(F)cc(F)c3)n2)cc(N2CCOC3(CC3)C2)c1 [Compound 1035, 1-(3,5-difluorophenyl)-N-[3-methyl-5-(4-oxa-7-azaspiro[2.5]octan-7-yl)phenyl]-1,2,4-triazol-3-amine]
[4]
  fold induction at 1 µM: 1 to 10
  fold induction at 10 µM: 1 to 10

## Fc1cc(Nc2ncn(-c3cccc(F)c3)n2)cc(N2CCCOCC2)c1 [Compound 166, N-[3-fluoro-5-(1,4-oxazepan-4-yl)phenyl]-1-(3-fluorophenyl)-1,2,4-triazol-3-amine]
[2]
  fold induction at 1 µM: 100 to 1000
[3]
  fold induction at 10 µM: 10 to 100

## Cc1cc(Nc2ncn(-c3ccc(F)c(F)c3)n2)c(F)c(N2CCN(C3COC3)CC2)c1 [Compound 998, 1-(3,4-difluorophenyl)-N-[2-fluoro-5-methyl-3-[4-(oxetan-3-yl)piperazin-1-yl]phenyl]-1,2,4-triazol-3-amine]
[4]
  fold induction at 1 µM: 10 to 100
  fold induction at 10 µM: 1 to 10

## Cc1cc(Nc2ncn(-c3ccc(F)c(F)c3)n2)cc(OCCN2CCOCC2)c1 [Compound 845, 1-(3,4-difluorophenyl)-N-[3-methyl-5-(2-morpholinoethoxy)phenyl]-1,2,4-triazol-3-amine]
[4]
  fold induction at 1 µM: 10 to 100
  fold induction at 10 µM: 1 to 10

## Cc1cc(Nc2ncn(-c3ccccc3)n2)nc(N2CC(N3CCOCC3)C2)c1 [Compound 502, 4-methyl-6-(3-morpholinoazetidin-1-yl)-N-(1-phenyl-1,2,4-triazol-3-yl)pyridin-2-amine]
[1]
  fold induction at 1 µM: 1 to 10
  fold induction at 10 µM: ≤ 1

## Cc1cc(Nc2ncn(-c3cc(F)cc(F)c3)n2)cc(N2C[C@H]3C[C@@H]2CN3C2COC2)c1 [Compound 185, 1-(3,5-difluorophenyl)-N-[3-methyl-5-[(1R,4R)-2-(oxetan-3-yl)-2,5-diazabicyclo[2.2.1]heptan-5-yl]phenyl]-1,2,4-triazol-3-amine]
[2]
  fold induction at 1 µM: 100 to 1000
[3]
  fold induction at 10 µM: 1 to 10

## Cc1cc(Nc2ncn(-c3ccc(F)cc3)n2)cc(N2CCN(C3COC3)CC2)c1 [Compound 622, 1-(4-fluorophenyl)-N-[3-methyl-5-[4-(oxetan-3-yl)piperazin-1-yl]phenyl]-1,2,4-triazol-3-amine]
[1]
  fold induction at 1 µM: 1 to 10
  fold induction at 10 µM: 1 to 10

## FC(F)c1cc(Nc2ncn(-c3ccccc3)n2)cc(N2CCN(C3CC3)CC2)c1 [Compound 348, N-[3-(4-cyclopropylpiperazin-1-yl)-5-(difluoromethyl)phenyl]-1-phenyl-1,2,4-triazol-3-amine]
[2]
  fold induction at 1 µM: 1000 to 10000
[3]
  fold induction at 10 µM: 100 to 1000

## Cc1cc(Nc2ncn(-c3cc(F)cc(F)c3)n2)cc(N2CCN(C(=O)C3CCOCC3)CC2)c1 [Compound 991, [4-[3-[[1-(3,5-difluorophenyl)-1,2,4-triazol-3-yl]amino]-5-methyl-phenyl]piperazin-1-yl]-tetrahydropyran-4-yl-methanone]
[4]
  fold induction at 1 µM: 10 to 100
  fold induction at 10 µM: 1 to 10

## Fc1cccc(-n2cnc(Nc3cc(N4CCN(C5COC5)CC4)cc(C(F)(F)F)c3)n2)c1 [Compound 175, 1-(3-fluorophenyl)-N-[3-[4-(oxetan-3-yl)piperazin-1-yl]-5-(trifluoromethyl)phenyl]-1,2,4-triazol-3-amine]
[2]
  fold induction at 1 µM: 1000 to 10000
[3]
  fold induction at 10 µM: ≤ 1

## Cc1cc(Nc2ncn(-c3ccccn3)n2)cc(C2CCCN(C3COC3)C2)c1 (stereo not drawn) [Compound 207, N-[3-methyl-5-[1-(oxetan-3-yl)-3-piperidyl]phenyl]-1-(2-pyridyl)-1,2,4-triazol-3-amine]
[2]
  fold induction at 1 µM: 10 to 100
[3]
  fold induction at 10 µM: ≤ 1

## Cc1cc(Nc2ncn(-c3cc(F)cc(F)c3)n2)cc(NC2CC2)c1 [Compound 448, N1-cyclopropyl-N3-[1-(3,5-difluorophenyl)-1,2,4-triazol-3-yl]-5-methyl-benzene-1,3-diamine]
[1]
  fold induction at 1 µM: 100 to 1000
  fold induction at 10 µM: 1 to 10

## Cc1cc(Nc2ncn(-c3ccc(F)c(F)c3)n2)cc(N2CCN(C)CC2)n1 [Compound 263, N-[1-(3,4-difluorophenyl)-1,2,4-triazol-3-yl]-2-methyl-6-(4-methylpiperazin-1-yl)pyridin-4-amine]
[2]
  fold induction at 1 µM: 10 to 100
[3]
  fold induction at 10 µM: 100 to 1000

## Cc1cc(Nc2ncn(-c3cccc(F)c3)n2)c(F)c(OC2CCOC2)c1 (stereo not drawn) [Compound 913, N-(2-fluoro-5-methyl-3-tetrahydrofuran-3-yloxy-phenyl)-1-(3-fluorophenyl)-1,2,4-triazol-3-amine]
[4]
  fold induction at 1 µM: 10 to 100
  fold induction at 10 µM: 10 to 100

## Cc1cc(Nc2ncn(-c3cc(F)cc(F)c3)n2)cc(C2CN(C3COC3)CC(C)O2)c1 (stereo not drawn) [Compound 663, 1-(3,5-difluorophenyl)-N-[3-methyl-5-[6-methyl-4-(oxetan-3-yl)morpholin-2-yl]phenyl]-1,2,4-triazol-3-amine]
[1]
  fold induction at 1 µM: 10 to 100
  fold induction at 10 µM: ≤ 1

## Cc1cc(Nc2ncn(-c3cc(F)cc(F)c3)n2)cc(N2CC(C(=O)N3CCOCC3)C2)c1 [Compound 690, [1-[3-[[1-(3,5-difluorophenyl)-1,2,4-triazol-3-yl]amino]-5-methyl-phenyl]azetidin-3-yl]-morpholino-methanone]
[1]
  fold induction at 1 µM: 1 to 10
  fold induction at 10 µM: 10 to 100

## Cc1cc(Nc2ncn(-c3ccc(F)c(F)c3)n2)cc(N2CCC(C3COC3)CC2)c1 [Compound 169, 1-(3,4-difluorophenyl)-N-[3-methyl-5-[4-(oxetan-3-yl)-1-piperidyl]phenyl]-1,2,4-triazol-3-amine]
[2]
  fold induction at 1 µM: 10 to 100
[3]
  fold induction at 10 µM: 1 to 10

## CNC1CCN(c2cc(C)cc(Nc3ncn(-c4cc(F)cc(F)c4)n3)c2)C1 (stereo not drawn) [Compound 267, 1-(3,5-difluorophenyl)-N-[3-methyl-5-[3-(methylamino)pyrrolidin-1-yl]phenyl]-1,2,4-triazol-3-amine]
[2]
  fold induction at 1 µM: 10 to 100
[3]
  fold induction at 10 µM: ≤ 1

## CCC1COCCN1CCNc1cc(C)cc(Nc2ncn(-c3cc(F)cc(F)c3)n2)c1 (stereo not drawn) [Compound 872, N3-[1-(3,5-difluorophenyl)-1,2,4-triazol-3-yl]-N1-[2-(3-ethylmorpholin-4-yl)ethyl]-5-methyl-benzene-1,3-diamine]
[4]
  fold induction at 1 µM: 10 to 100
  fold induction at 10 µM: ≤ 1

## Cc1cc(Nc2ncn(-c3cc(F)cc(F)c3)n2)cc(N2CC(C(=O)N(C)C)C2)c1 [Compound 711, 1-[3-[[1-(3,5-difluorophenyl)-1,2,4-triazol-3-yl]amino]-5-methyl-phenyl]-N,N-dimethyl-azetidine-3-carboxamide]
[1]
  fold induction at 1 µM: 10 to 100
  fold induction at 10 µM: 1 to 10

## Cc1cc(Nc2ncn(-c3ccccc3)n2)cc(N2CCN(C3CC3)CC2)c1 [Compound 149, N-[3-(4-cyclopropylpiperazin-1-yl)-5-methyl-phenyl]-1-phenyl-1,2,4-triazol-3-amine]
[2]
  fold induction at 1 µM: 1000 to 10000
[3]
  fold induction at 10 µM: 10 to 100

## CCOC1CCN(c2cc(C)cc(Nc3ncn(-c4cc(F)cc(F)c4)n3)c2)CC1 [Compound 976, 1-(3,5-difluorophenyl)-N-[3-(4-ethoxy-1-piperidyl)-5-methyl-phenyl]-1,2,4-triazol-3-amine]
[4]
  fold induction at 1 µM: 1 to 10
  fold induction at 10 µM: 10 to 100

## Cc1cc(Nc2ncn(-c3cc(F)cc(Cl)c3)n2)cc(N2CCN(C)CC2)c1 [Compound 220, 1-(3-chloro-5-fluoro-phenyl)-N-[3-methyl-5-(4-methylpiperazin-1-yl)phenyl]-1,2,4-triazol-3-amine]
[2]
  fold induction at 1 µM: 10 to 100
[3]
  fold induction at 10 µM: ≤ 1

## Cc1cc(Nc2ncn(-c3ccccc3)n2)cc(N2CC(C)NCC2C)c1 (stereo not drawn) [Compound 21, N-[3-(2,5-dimethylpiperazin-1-yl)-5-methyl-phenyl]-1-phenyl-1,2,4-triazol-3-amine]
[2]
  fold induction at 1 µM: 10 to 100
[3]
  fold induction at 10 µM: ≤ 1

## Fc1ccc(-n2cnc(Nc3cc(C4CC4)nc(N4CC[C@H](F)C4)c3)n2)cc1F [Compound 492, 2-cyclopropyl-N-[1-(3,4-difluorophenyl)-1,2,4-triazol-3-yl]-6-[(3S)-3-fluoropyrrolidin-1-yl]pyridin-4-amine]
[1]
  fold induction at 1 µM: 1000 to 10000
  fold induction at 10 µM: 1000 to 10000

## Cc1cc(Nc2ncn(-c3cc(F)cc(F)c3)n2)cc(NC2CCOC3(CCOC3)C2)c1 (stereo not drawn) [Compound 1048, N3-[1-(3,5-difluorophenyl)-1,2,4-triazol-3-yl]-N1-(2,6-dioxaspiro[4.5]decan-9-yl)-5-methyl-benzene-1,3-diamine]
[4]
  fold induction at 1 µM: 10 to 100
  fold induction at 10 µM: ≤ 1

## CCc1cc(Nc2ncn(-c3ccc(F)cc3)n2)cc(N2CCN(C3(C)COC3)CC2)c1 [Compound 802, N-[3-ethyl-5-[4-(3-methyloxetan-3-yl)piperazin-1-yl]phenyl]-1-(4-fluorophenyl)-1,2,4-triazol-3-amine]
[4]
  fold induction at 1 µM: 10 to 100
  fold induction at 10 µM: ≤ 1
